Test results reported in patent publication US10385096B2, “Pro-Amb reverse turn restricted bioactive peptide analogues” (Council of Scientific & Industrial Research, priority 2016, dated 2019).

What was measured:
[1] = test system: AT2 receptor; assay: neurite outgrowth assay in NG108-15 cells (functional activity at the AT2 receptor); format: cell-based; details: PD 123319 alone (10 μM), 3 days
Procedure: The functional activity of the analogues of the present invention was evaluated at the AT2 receptor, applying a neurite outgrowth assay in NG108-15 [108CC15] (ATCC® HB12317™) cells. […] The signaling pathways involve a sustained increase in Rap1/BRaf/p42/p44mapk activity and activation of the nitric oxide/guanylyl cyclase/cGMP pathway. NG108-15 cells were treated in absence or presence of Ang II and PD 123319, an AT2 receptor antagonist. The cells were plated at the initial density of 3.6×10^4 cells/petri dish (35 mm) and were cultured for 3 days in the absence (−) or presence (+) of 100 nM Ang II, 1 μM analogue 3, analogue 2 and analogue 1 alone or in combination with 10 μM antagonist PD 123,319 or 100 nM AngII. After 3 days of treatment, the cells were examined under a phase contrast microscope and micrographs were taken. Cells with at least one neurite longer than a cell body were counted as a positive neurite outgrowth. Antagonistic effect was established through co-incubation with Ang II resulting in reduced Ang II-induced neurite outgrowth, verifying blockage of the AT2 receptor. […] The number of cells with neurites was expressed as the percentage of the total number in the micrographs (at least 260 cells according to the experiment). […]
NG108-15 [108CC15] […] Cells with at least one neurite longer than a cell body were counted as positive for neurite outgrowth. […]

[2] = test system: AT2 receptor; details: 3-day treatment, undifferentiated NG108-15 cells; reported by Blankley et al; cited from earlier work

Molecule	cell morphology compared to untreated cells [1]	neurite outgrowth in NG108-15 cells (earlier reported) [2]
Cc1cc(Cn2cnc3c2C[C@@H](C(=O)O)N(C(=O)C(c2ccccc2)c2ccccc2)C3)ccc1N(C)C [PD 123319]	did not alter the morphology	–
Asp-Arg-Val-Tyr-Ile-His-Pro-Phe (DRVYIHPF) [Ang II, octapeptide, endogenous substrate for AT1 and AT2 receptors]	–	induces neurite outgrowth
CGP-42112A	–	induces neurite outgrowth
